{"source": "patent US20220145264A1", "about": "“CULTURE MEDIUM FOR MAMMALIAN EXPANDED POTENTIAL STEM CELLS, COMPOSITION, AND METHODS THEREOF” (THE UNIVERSITY OF HONG KONG, priority 2019, published 2022)", "tested_on": "pEPSCs^Emb", "test": "Requirement of individual culture components for pEPSCs (RT-qPCR, AP+ colony formation)", "type": "cell-based, porcine", "protocol": "Porcine and human EPSC cultures were routinely maintained on STO feeders. STO feeder plates were prepared 3-4 days before passaging by thawing and plating the mitomycin C inactivated STO cells on 0.1% gelatinised plates at the density of ˜1.1×10^4 cells/cm^2. Porcine/human EPSC cells were maintained on STO feeder layers and enzymatically passaged every 3-5 days by a brief PBS wash followed by treatment for 3-5 minutes with 0.25% trypsin/EDTA (Gibco, Cat. No. 25500-054). The cells were dissociated and centrifuged (300 g×5 minutes) in M10 medium. M10: knockout DMEM (Gibco, Cat. No. 10829-018), 10% FBS (Gibco, Cat. No. 10270), 1× Glutamine Penicillin-Streptomycin (Thermo Fisher Scientific, Cat. No. 11140050) and 1×NEAA (Thermo Fisher Scientific, Cat. No. 10378-016). After removing supernatant, the porcine/human EPSCs were re-suspended and seeded in pEPSCM/hEPSCM supplemented with 5 μM ROCK inhibitor Y-27632 (Tocris, Cat. No. 1254). 5% FBS (Gibco, Cat. No. 10270) and 10% KnockOut Serum Replacement (KSR) (Gibco, Cat. No. 10828028) were added in pEPSCM and hEPSCM respectively to improve cells survive. 12-24 hours later, medium was switched to pEPSCM/hEPSCM only. Both pEPSCM and hEPSCM are N2B27 based media. N2B27 basal media (500 ml) was prepared by inclusion of the following components: 482.5 ml DMEM/F-12 (Gibco, Cat. No. 21331-020), 2.5 ml N2 supplement (Thermo Fisher Scientific, Cat. No. 17502048), 5 ml B27 supplement (Thermo Fisher Scientific, Cat. No. 17504044), 5 ml 1× Glutamine Penicillin-Streptomycin (Thermo Fisher Scientific, Cat. No. 11140-050), and 5 ml 1×NEAA (Thermo Fisher Scientific, Cat. No. 10378-016), 0.1 mM 2-mercaptoethanol (Sigma, Cat. No. M6250). pEPSCM (500 ml) was generated by adding the following small molecules and cytokines into 500 ml N2B27 basal media: 0.2 μM CHIR99021(GSK3i, TOCRIS, Cat. No. 4423), 1 μM WH-4-023 (SRC inhibitor, TOCRIS, Cat. No. 5413), 2.5 μM XAV939 (Sigma, Cat. No. X3004) or 2.5 μM IWR-1 (TOCRIS, Cat. No. 3532), […] Vitamin C (Sigma, Cat. No. 49752-100G), 10 ng/ml LIF (Stem Cell Institute, University of Cambridge. SCI) and 20 ng/ml ACTIVIN (SCI). hEPSCM (500 ml) was generated by adding the following components into 500 ml N2B27 basal media: 1.0 μM CHIR99021(GSK3 inhibitor, TOCRIS, Cat. No. 4423), 0.5 μM A-419259 (SRC inhibitor, TOCRIS, Cat. No. 3914), 2.5 μM XAV939 (Sigma, Cat. No. X3004), […] Vitamin C (Sigma, Cat. No. 49752-100G), 10 ng/ml LIF (SCI). Although both targeting SRC family kinases (SFKs), WH-4-023 and A419259 were preferred for porcine and human EPSCs, respectively. […] The concentrations of CHIR99021 for porcine and human EPSC cultures are 0.2 μM and 1.0 μM, respectively. […] 0.25 μM SB 590885 (BRAF inhibitor, R&D, Cat. No. 2650) and 2.0 μM SP600125 ([…], TOCRIS, Cat. No. 1496) were included to improve porcine and human EPSC cultures, but they were not essential for the routine maintenance of porcine and human EPSCs. All cell cultures in this paper were performed under conditions of 37° C. and 5% CO2 unless stated otherwise.\nTotal RNA was isolated using an RNeasy Mini Kit (Qiagen, Cat. No. 74106) for cultured cells or RNeasy Micro Kit (Qiagen, Cat. No. 74034) for sorted NANOS3-mCherry^+ cells. RNA was subsequently quantified and treated with gDNA WipeOut to remove genomic DNA. Complementary DNA (cDNA) was prepared using a QuantiTect Reverse Transcription Kit (Qiagen, Cat. No. 205311). RT-qPCR primers or TaqMan Gene Expression Assays (Life Technologies) are listed in Supplementary Table 10 and 11. ABsolute Blue qPCR ROX Mix (ABgene, Cat. No. AB4138B) were used for probe based qPCR assays and SYBR Green ROX qPCR Mastermix (Qiagen, Cat. No. 330523) were used for primer based qPCR assays. All qPCR reactions were performed on ABI 7900 HT Sequence Detection System (Life Technologies). Information on all primers and probes used for qPCR analysis are provided in Supplementary Table 10 and 11. Gene expression was determined relative to GAPDH using the […]. […]", "data": [{"compound": "O=C(NOC[C@H](O)CO)c1ccc(F)c(F)c1Nc1ccc(I)cc1F", "note": "[PD0325901]", "values": [{"measurement": "pEPSC survival as measured by colony formation in serial passaging", "setting": "0.1 μM added to pEPSCM", "value": "decreased pEPSC survival"}]}, {"compound": "ACTIVIN A: Human Recombinant ACTIVIN A cytokine", "values": [{"measurement": "cell survival and pluripotency factor expression", "setting": "removing ACTIVIN A from pEPSCM", "value": "massive cell loss and down-regulation of pluripotency factors"}]}]}
